The record followed here is US12552798B2, “Substituted imidazolecarboxamide as Bruton's tyrosine kinase inhibitors” (Henan Zhiwei Biomedicine Co., Ltd., priority 2019, dated 2026).

Where two headings read alike, the source gives them in different places. Bounds are passed on as bounds.

One data set concerns the target BMX (Homo sapiens (Human), UniProt P51813). Briefly: BMX kinase inhibitory assay (ELISA). Type of data set: biochemical. Particulars: for Selectivity Ratio (BTK and BMX): BMX IC50 relative to BTK IC50; for IC50: ELISA, 3 μmol/L ATP. Here is the method:
(§1) BTK, EGFR, BMX, or ITK Inhibitory Assay Procedure for BTK, BMX, EGFR and ITK Inhibitory Assay:
(§2) Kinase inhibitory activities of compounds were evaluated using the Enzyme-linked immunosorbent assay (ELISA). The kinase enzyme of BTK, BMX, EGFR and ITK were purchased from Carna Bioscience (Kobe, Japan). A total of 10 ng/mL antiphosphotyrosine (PY713) antibody (abcam, Cambridge Science Park, UK) was precoated in 96-well ELISA plates. The kinase enzymes in each reaction well were set to BTK (101.25 ng/mL), BMX (90 ng/mL), EGFR (90 ng/mL) or ITK (120 ng/mL) and incubated with indicated compounds in 1× reaction buffer (50 mmol/L HEPES pH 7.4, 20 mmol/L MgCl2, 0.1 mmol/L MnCl2, 1 mmol/L DTT) containing 20 μmol/L (the final concentration of substrate in ITK reaction was 30 μmol/L) substrate (NH2-ETVYSEVRK-biotin) at 25° C. for 1 h. Then, a total of 3 μmol/L ATP was added and the reaction was continued for 2 hrs. The products of reaction were transferred into 96-well ELISA plates containing antibody and incubated at 25° C. for 30 min. After incubation, the wells were washed with PBS and then incubated with horseradish peroxidase […]-conjugated streptavidin. The wells were visualized using 3,3′,5,5′-tetramethylbenzidine (TMB), and chromogenic reaction was ended with 2 mol/L H2SO4, the absorbance was read with a multimode plate reader (PerkinElmer, USA) at 450 nm. IC50 values and curve fits were obtained using Prism (GraphPad Software).

For another data set, the target named is EGFR (Homo sapiens (Human), UniProt P00533). Briefly: EGFR kinase inhibitory assay (ELISA). Format: biochemical. The conditions noted are these: for Selectivity Ratio (BTK and EGFR): EGFR IC50 relative to BTK IC50; for IC50: ELISA, 3 μmol/L ATP. As to the method:
as §1, §2

A further data set concerns the target ITK (Homo sapiens (Human), UniProt Q08881). As to the kind of experiment: ITK kinase inhibitory assay (ELISA). Format: biochemical. The conditions noted are these: for Selectivity Ratio (BTK and ITK): ITK IC50 relative to BTK IC50; for IC50: ELISA, 3 μmol/L ATP. Here is the method: as §1, §2
For the next data set, the system named is Ramos. As to the kind of experiment: Cell antiproliferative activity assay (CellTiter-Glo), Ramos. Format: cell-based. Particulars: 72 hs, read-out: Cell Growth IC50 (nM) Ramos. As to the method:
(§3) Cell Antiproliferative Activity Assay
(§4) Cell antiproliferative activity was evaluated by the CellTiter-Glo (Promega, USA) assay. Make 1000× compounds solution in DMSO, add 1 μl 1000× compounds to […] growth medium to make 20× compounds. Dilute cell suspensions in growth medium to desired density and 95 μl were taken to 96-well plate. Add 5 μl 20× compounds into 96-well plate according to the plate map. Final DMSO concentration in each well was 0.1%. Then the cell was incubated at 37° C., 5% CO2 for 72 hs. Equilibrate the assay plate to room temperature before measurement. Add 20 μl of CellTiter-Glo© Reagent into each well. Mix contents for 2 minutes on an orbital shaker to induce cell lysis. Incubate at room temperature for 10 minutes to stabilize luminescent signal. Record luminescence using EnVision Multilabel Reader (PerkinElmer). Cell viability (CV %) was calculated relative to vehicle (DMSO) treated control wells using following formula: Cell viability (%)=(RLU compound−RLU blank)/(RLU control−RLU blank)*100%. The IC50 values were calculated using GraphPad Prism 6.0 software, fitting to a 4-parameter equation to generate concentration response curves. All assays were conducted with three parallel samples and three repetitions.

The subject of a further data set is MOLM-13. Briefly: Cell antiproliferative activity assay (CellTiter-Glo), MOLM-13. Type of data set: cell-based. The conditions noted are these: Homo sapiens; MOLM-13, 72 hs; read-out: Cell Growth IC50 (nM) MOLM-13. Here is the method:
as §3, §4

The target of the next data set is BTK (Homo sapiens (Human), UniProt Q06187). As to the kind of experiment: BTK kinase inhibitory assay (ELISA). Particulars: 3 μmol/L ATP. Format: biochemical. Here is the method:
as §1, §2
Background: An ELISA detects its analyte on a solid surface through an enzyme-linked reagent.

The next data set has as its system TMD8. Briefly: Cell antiproliferative activity assay (CellTiter-Glo), TMD8. Type of data set: cell-based. The conditions noted are these: read-out: Cell Growth IC50 (nM) TMD8. Here is the method: as §3, §4
The subject of a further data set is 293T. Briefly: Cell antiproliferative activity assay (CellTiter-Glo), 293T. The conditions noted are these: 72 hs, read-out: Cell Growth IC50 (nM) 293T. Type of data set: cell-based. As to the method:
as §3, §4
In general terms: ATP-based viability assays read luminescence as a measure of living cells.

Data set [1] is described as follows: PK properties assay in SD rats. Type of data set: in vivo. Particulars: rat, plasma. Here is the method: Six SD rats were divided into two groups, and compound was administered by gavage and tail vein injection. The intravenous injection group was administered 2 min, 5 min, 15 min, 30 min, 1 h, 2 h, 4 h, 6 h, 8 h, and 12 h after administration. 0.25 mL of blood samples were collected from the posterior orbital venous plexus at 5 min, 15 min, 30 min, 1 h, 2 h, 4 h, 6 h, 8 h, 12 h, and 24 h after administration. LC-MS/MS method was used to determine the concentration of compound in plasma samples from SD rats, and the pharmacokinetic parameters were calculated using WinNolin software.

BTK, sequence (Q06187 whole entry): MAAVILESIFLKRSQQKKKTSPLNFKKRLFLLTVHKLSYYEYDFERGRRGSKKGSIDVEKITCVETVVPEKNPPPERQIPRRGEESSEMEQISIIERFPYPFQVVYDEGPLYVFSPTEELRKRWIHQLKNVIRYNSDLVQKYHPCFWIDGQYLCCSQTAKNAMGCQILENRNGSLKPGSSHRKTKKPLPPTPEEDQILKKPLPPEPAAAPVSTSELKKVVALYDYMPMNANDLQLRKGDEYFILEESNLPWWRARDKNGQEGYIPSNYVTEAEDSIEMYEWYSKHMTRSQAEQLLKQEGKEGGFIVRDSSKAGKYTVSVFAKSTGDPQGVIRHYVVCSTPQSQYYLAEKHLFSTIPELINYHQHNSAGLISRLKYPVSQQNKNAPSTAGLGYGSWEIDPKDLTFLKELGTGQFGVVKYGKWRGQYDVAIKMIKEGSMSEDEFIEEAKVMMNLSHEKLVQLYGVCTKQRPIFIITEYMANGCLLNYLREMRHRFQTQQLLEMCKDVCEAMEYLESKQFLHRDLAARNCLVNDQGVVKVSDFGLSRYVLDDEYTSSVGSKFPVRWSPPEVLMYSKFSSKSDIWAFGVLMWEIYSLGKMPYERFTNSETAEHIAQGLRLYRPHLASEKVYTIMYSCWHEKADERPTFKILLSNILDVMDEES
BMX, sequence (P51813 whole entry): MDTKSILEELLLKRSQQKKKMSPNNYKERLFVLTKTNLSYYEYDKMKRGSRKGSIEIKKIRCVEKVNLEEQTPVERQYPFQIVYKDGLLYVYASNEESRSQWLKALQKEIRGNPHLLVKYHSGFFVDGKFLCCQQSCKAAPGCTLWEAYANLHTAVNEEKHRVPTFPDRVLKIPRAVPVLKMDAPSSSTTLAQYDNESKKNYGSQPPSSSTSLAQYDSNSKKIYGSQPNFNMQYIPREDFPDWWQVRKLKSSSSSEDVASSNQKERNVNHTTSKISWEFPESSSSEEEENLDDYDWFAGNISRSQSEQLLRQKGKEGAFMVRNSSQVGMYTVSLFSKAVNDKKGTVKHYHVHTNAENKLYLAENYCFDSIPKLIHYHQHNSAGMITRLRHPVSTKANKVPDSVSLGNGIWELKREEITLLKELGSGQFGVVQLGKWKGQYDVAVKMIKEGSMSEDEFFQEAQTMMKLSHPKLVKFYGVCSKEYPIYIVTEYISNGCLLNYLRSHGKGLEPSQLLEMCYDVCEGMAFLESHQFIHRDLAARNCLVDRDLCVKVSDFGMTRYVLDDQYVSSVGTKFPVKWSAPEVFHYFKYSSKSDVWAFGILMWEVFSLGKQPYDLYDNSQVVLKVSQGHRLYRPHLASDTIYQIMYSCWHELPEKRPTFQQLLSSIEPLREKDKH
ITK, sequence (Q08881 whole entry): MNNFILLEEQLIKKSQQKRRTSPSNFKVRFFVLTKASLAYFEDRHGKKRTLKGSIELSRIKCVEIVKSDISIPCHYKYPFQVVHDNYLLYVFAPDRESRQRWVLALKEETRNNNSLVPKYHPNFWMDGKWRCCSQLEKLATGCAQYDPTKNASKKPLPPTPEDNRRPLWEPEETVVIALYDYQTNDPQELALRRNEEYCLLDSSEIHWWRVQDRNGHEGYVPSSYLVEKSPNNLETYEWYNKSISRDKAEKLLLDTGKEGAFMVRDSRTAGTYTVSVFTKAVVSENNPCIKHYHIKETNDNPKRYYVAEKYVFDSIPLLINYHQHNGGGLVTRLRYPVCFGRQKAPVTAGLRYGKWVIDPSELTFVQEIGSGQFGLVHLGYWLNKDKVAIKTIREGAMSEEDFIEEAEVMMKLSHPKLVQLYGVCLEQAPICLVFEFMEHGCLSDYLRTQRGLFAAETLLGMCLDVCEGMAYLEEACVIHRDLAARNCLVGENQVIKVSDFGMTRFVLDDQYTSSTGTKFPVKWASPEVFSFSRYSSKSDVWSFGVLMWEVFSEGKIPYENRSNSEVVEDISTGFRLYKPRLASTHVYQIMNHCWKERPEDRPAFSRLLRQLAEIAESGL
EGFR, sequence (P00533 25-1210): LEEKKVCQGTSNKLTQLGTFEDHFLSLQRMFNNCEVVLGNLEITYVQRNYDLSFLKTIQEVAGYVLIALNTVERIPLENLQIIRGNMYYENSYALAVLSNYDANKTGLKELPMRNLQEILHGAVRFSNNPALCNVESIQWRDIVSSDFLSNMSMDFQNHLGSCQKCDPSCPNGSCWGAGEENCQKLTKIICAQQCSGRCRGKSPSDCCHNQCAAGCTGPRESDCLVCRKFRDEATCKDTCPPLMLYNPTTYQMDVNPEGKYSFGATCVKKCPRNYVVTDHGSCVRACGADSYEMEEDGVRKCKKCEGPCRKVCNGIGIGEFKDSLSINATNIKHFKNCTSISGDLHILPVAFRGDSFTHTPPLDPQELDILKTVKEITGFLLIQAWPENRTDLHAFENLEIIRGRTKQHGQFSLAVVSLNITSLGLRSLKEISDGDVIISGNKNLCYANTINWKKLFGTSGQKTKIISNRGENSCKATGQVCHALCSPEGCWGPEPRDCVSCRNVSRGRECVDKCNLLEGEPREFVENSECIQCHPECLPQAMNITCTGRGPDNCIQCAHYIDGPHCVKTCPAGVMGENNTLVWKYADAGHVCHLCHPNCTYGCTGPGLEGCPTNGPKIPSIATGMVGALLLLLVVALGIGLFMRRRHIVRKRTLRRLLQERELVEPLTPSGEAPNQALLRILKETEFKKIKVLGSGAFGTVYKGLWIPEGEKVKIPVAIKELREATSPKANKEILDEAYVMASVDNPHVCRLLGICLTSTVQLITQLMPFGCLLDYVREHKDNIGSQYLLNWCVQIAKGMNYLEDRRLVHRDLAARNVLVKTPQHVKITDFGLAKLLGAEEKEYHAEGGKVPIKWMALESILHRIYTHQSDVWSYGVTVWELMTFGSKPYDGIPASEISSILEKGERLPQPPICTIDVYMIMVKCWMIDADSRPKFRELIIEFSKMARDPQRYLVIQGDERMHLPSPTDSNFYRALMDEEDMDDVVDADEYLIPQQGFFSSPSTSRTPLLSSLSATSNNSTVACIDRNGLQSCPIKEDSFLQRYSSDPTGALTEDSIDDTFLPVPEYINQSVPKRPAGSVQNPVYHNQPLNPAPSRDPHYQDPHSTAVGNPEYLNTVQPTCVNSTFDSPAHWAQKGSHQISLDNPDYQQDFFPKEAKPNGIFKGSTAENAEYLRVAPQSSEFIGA

Take `NC(=O)c1c(-c2ccc(Oc3ccccc3)cc2)nc2n1NCCC2C1CN(C(=O)/C=C/C(F)(F)F)C1` (centres unmarked) [Example 20, (E)-2-(4-phenoxyphenyl)-8-(1-(4,4,4-trifluorobut-2-enoyl)azetidin-3-yl)-5,6,7,8-tetrahydroimidazo[1,2-b]pyridazine-3-carboxamide]: at BMX, the “Selectivity Ratio (BTK and BMX)” value is 8.79. Moreover, the “Selectivity Ratio (BTK and EGFR)” value on EGFR turned out to be 405.5. On ITK, the “Selectivity Ratio (BTK and ITK)” value was 1080.6. The IC50 with Ramos (Homo sapiens) turned out to be 294 nM; in the data set on MOLM-13, 1360 nM.
Take `NC(=O)c1c(-c2ccc(Oc3ccccc3)cc2)nc2n1NCCC2C1CCN(C(=O)/C=C/C(F)(F)F)CC1` (centres unmarked) [Example 10, 2-(4-Phenoxy-phenyl)-8-[1-(4,4,4-trifluoro-but-2-enoyl)-piperidin-4-yl]-5,6,7,8-tetrahydro-imidazo[1,2-b]pyridazine-3-carboxamide]: the IC50 on BTK stood at 8.2 nM; on BMX it was 49.5 nM; against EGFR, 1930 nM; on ITK, 10800 nM; with TMD8 (Homo sapiens, TMD8, TMD8, 72 hs), 51.6 nM; in the data set with Ramos (Homo sapiens) it was 2760 nM. For the same compound, the IC50 in the data set on 293T (Homo sapiens, HEK-293T) stood at 45300 nM. For the same compound, on BMX, the “Selectivity Ratio (BTK and BMX)” value stood at 6.04. Also, the “Selectivity Ratio (BTK and EGFR)” value on EGFR came to 235.36. Also, the “Selectivity Ratio (BTK and ITK)” value at ITK is recorded as 1314.
`C#CC(=O)N1CCC(C2CCNn3c2nc(-c2ccc(Oc4ccccc4)cc2)c3C(N)=O)CC1` (centres unmarked) [Example 11, 2-(4-phenoxyphenyl)-8-(1-propioloylpiperidin-4-yl)-5,6,7,8-tetrahydroimidazo[1,2-b]pyridazine-3-carboxamide]: the IC50 was found to be 8.2 nM against BTK; 22.8 nM on BMX; 28.1 nM at EGFR; 225 nM against ITK; 725 nM in the data set on Ramos (Homo sapiens); 1100 nM in the data set with MOLM-13. The “Selectivity Ratio (BTK and BMX)” value at BMX came out at 2.78. Further, on EGFR, the “Selectivity Ratio (BTK and EGFR)” value turned out to be 3.43. In addition, the “Selectivity Ratio (BTK and ITK)” value on ITK is 27.40.
`C=CC(=O)N1CCC(C2CCNn3c2nc(-c2ccc(Oc4ccccc4)cc2)c3C(N)=O)CC1` (single isomer, unassigned) [1a (peak 1)]: the IC50 against BTK was found to be 2.6 nM. For the same compound, on BMX, the “Selectivity Ratio (BTK and BMX)” value is 5.88; the IC50 was found to be 15.3 nM. For the same compound, on EGFR, the “Selectivity Ratio (BTK and EGFR)” value worked out at 2.00; the half-inhibitory concentration (IC50) was 5.2 nM. For the same compound, on ITK, the IC50 was 483 nM; the “Selectivity Ratio (BTK and ITK)” value was determined as 185.6. Moreover, the IC50 in the data set on TMD8 (TMD8, 72 hs) came to 5.4 nM. The IC50 with 293T (Homo sapiens, HEK-293T) stood at 8450 nM. Besides, in [1] (iv 5 mg/kg), the Vd was determined as 0.959 L/kg, the clearance was determined as 27 mL/min/kg and the half-life is 24.6 min. In [1] (po 5 mg/kg), the AUC is 3430 ng·h/mL, the maximum concentration (Cmax) worked out at 923 ng/mL, the bioavailability turned out to be 52.9% and the half-life was 84.6 min.
The compound `NC(=O)c1c(-c2ccc(Oc3ccccc3)cc2)nc2n1NCCC2C1CCN(C(=O)/C=C/C(F)(F)F)CC1` (single isomer, unassigned) [10a (peak 1)] showed an IC50 against BTK of 6.7 nM. At BMX, the “Selectivity Ratio (BTK and BMX)” value is 3.12; the IC50 was found to be 20.9 nM. Also, on EGFR, the “Selectivity Ratio (BTK and EGFR)” value amounted to 365.37; the midpoint of inhibition, the IC50, lay at 2450 nM. On ITK, 2020 nM corresponded to half-maximal inhibition (IC50); the “Selectivity Ratio (BTK and ITK)” value came out at 301.5. Besides, in the data set on TMD8 (TMD8, 72 hs), the IC50 stood at 16.5 nM. In the data set with Ramos, the IC50 turned out to be 1270 nM. Further, the IC50 with MOLM-13 was determined as 3150 nM. In the data set on 293T (Homo sapiens, HEK-293T), the IC50 was found to be 1010 nM. In [1] (iv 5 mg/kg), this compound had a Vd of 1.6 L/kg, a clearance of 59.8 mL/min/kg and a half-life of 18.6 min. For the same compound, in data set [1] (po 5 mg/kg), the AUC came to 1390 ng·h/mL, the Cmax came out at 703 ng/mL, the bioavailability stood at 47.2% and the half-life was 87 min.
Take `NC(=O)c1c(-c2ccc(Oc3ccccc3)cc2)nc2n1NCCC2C1CCN(C(=O)/C=C/C(F)(F)F)CC1` (single isomer, unassigned) [10b (peak 2)]: the IC50 was 61.8 nM against BTK; 144 nM against BMX; 39500 nM on EGFR; above 30000 nM at ITK; 257 nM with TMD8 (TMD8, 72 hs); 6440 nM in the data set on Ramos. Also, in the data set with 293T, the IC50 was determined as 1910 nM. Besides, the “Selectivity Ratio (BTK and BMX)” value on BMX was 2.32. For the same compound, the “Selectivity Ratio (BTK and EGFR)” value at EGFR is listed as 638.75. In addition, the “Selectivity Ratio (BTK and ITK)” value on ITK is above 485.4.

As a reminder, the IC50 is the midpoint of a concentration-inhibition curve. As a reminder, the Vd is a proportionality between amount in the body and measured concentration, not a real space. Low readings indicate confinement near the circulation, high ones extensive tissue distribution. In general, clearance refers to a measure of how efficiently the substance is removed, as volume per time. As usually defined, the half-life is the time in which the quantity being followed falls by half. The low end stands for rapid decline, the high end for slow decline. In general, AUC refers to the area under the concentration-time curve, a measure of exposure. Lower therefore signals less exposure. One may read the Cmax as the peak of the concentration-time curve. In general, bioavailability refers to the share of a dose that reaches the circulation, judged against a reference dose that is usually intravenous. Low values mean little systemic uptake, high ones much systemic uptake.
